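Five concentrations, 48 hours, 96-well plates. Abbreviation: GI50, concentration required for 50% inhibition of growth.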 The source made the active and inactive calls. Rule as the data show it: active = GI50 up to about 1.1 µM and inactive = higher.
Experiments:
Test in all cases: NCI tumour cell line growth inhibition, 48 h
[1] = test system: SN12C
[2] = test system: A498
[3] = test system: 786-0
[4] = test system: SF-268
[5] = test system: HCC 2998
[6] = test system: TK-10
[7] = test system: CCRF-CEM
[8] = test system: LOX IMVI
[9] = test system: HT-29
[10] = test system: NCI-H226
[11] = test system: COLO 205
[12] = test system: UACC-257
[13] = test system: HOP-62
[14] = test system: ACHN
[15] = test system: IGROV-1
[16] = test system: NCI-H460
[17] = test system: UO-31
[18] = test system: RXF 393
[19] = test system: HCT-15
[20] = test system: NCI-H23
[21] = test system: Hs-578T
[22] = test system: SF-539
[23] = test system: MDA-MB-435
[24] = test system: OVCAR-5
[25] = test system: Malme-3M
[26] = test system: SNB-75
[27] = test system: A549
[28] = test system: NCI-H522
[29] = test system: HCT-116
[30] = test system: T47D
[31] = test system: SK-MEL-28
[32] = test system: OVCAR-3
[33] = test system: BT-549
[34] = test system: NCI/ADR-RES
[35] = test system: MOLT-4
[36] = test system: SNB-19
[37] = test system: HL-60
[38] = test system: RPMI-8226
[39] = test system: SF-295
[40] = test system: SK-OV-3
[41] = test system: M14
[42] = test system: UACC-62
[43] = test system: SR
[44] = test system: OVCAR-8
[45] = test system: K562
[46] = test system: HOP-92
[47] = test system: PC-3
[48] = test system: SK-MEL-5
[49] = test system: MCF7
[50] = test system: SK-MEL-2
[51] = test system: U-251
[52] = test system: SW-620
[53] = test system: MDA-MB-231
[54] = test system: CAKI-1
[55] = test system: KM12
[56] = test system: DU-145
[57] = test system: EKVX
[58] = test system: OVCAR-4
[59] = test system: MDA-N

**Q.** How did the GI50 [1] turn out when `COC(=O)/C=C/c1ccccc1N=[S@](C)(=O)c1ccc(C)cc1` was run?
**A.** 34.9 µM (inactive)

**Q.** And the GI50 [2]?
**A.** 8.41 µM (inactive)

**Q.** What about the GI50 [3] of the same compound?
**A.** 27.9 µM (inactive)

**Q.** What about the GI50 [4] of the same compound?
**A.** 29.4 µM (inactive)

**Q.** And the GI50 [5]?
**A.** 24.2 µM (inactive)

**Q.** And the GI50 [6]?
**A.** 22.4 µM (inactive)

**Q.** And the GI50 [7]?
**A.** 11.5 µM (inactive)

**Q.** And the GI50 [8]?
**A.** 23.5 µM (inactive)

**Q.** And the GI50 [9]?
**A.** 7.93 µM (inactive)

**Q.** And the GI50 [10]?
**A.** 36.1 µM (inactive)

**Q.** What about the GI50 [11] of the same compound?
**A.** 8.34 µM (inactive)

**Q.** What about the GI50 [12] of the same compound?
**A.** 8.85 µM (inactive)

**Q.** And the GI50 [13]?
**A.** 24.2 µM (inactive)

**Q.** What about the GI50 [14] of the same compound?
**A.** 32.6 µM (inactive)

**Q.** What about the GI50 [15] of the same compound?
**A.** 18 µM (inactive)

**Q.** And the GI50 [16]?
**A.** 18.4 µM (inactive)

**Q.** What about the GI50 [17] of the same compound?
**A.** 50.4 µM (inactive)

**Q.** What about the GI50 [18] of the same compound?
**A.** 13.2 µM (inactive)

**Q.** And the GI50 [19]?
**A.** 6.14 µM

**Q.** And the GI50 [20]?
**A.** 28.1 µM (inactive)

**Q.** What about the GI50 [21] of the same compound?
**A.** 18.7 µM (inactive)

**Q.** What about the GI50 [22] of the same compound?
**A.** 21.8 µM (inactive)

**Q.** And the GI50 [23]?
**A.** 3.54 µM (inactive)

**Q.** And the GI50 [24]?
**A.** 36.1 µM (inactive)

**Q.** What about the GI50 [25] of the same compound?
**A.** 14 µM (inactive)

**Q.** What about the GI50 [26] of the same compound?
**A.** 6.21 µM (inactive)

**Q.** What about the GI50 [27] of the same compound?
**A.** 27.9 µM (inactive)

**Q.** And the GI50 [28]?
**A.** 2.86 µM (inactive)

**Q.** What about the GI50 [29] of the same compound?
**A.** 15.3 µM (inactive)

**Q.** What about the GI50 [30] of the same compound?
**A.** 31.8 µM (inactive)

**Q.** What about the GI50 [31] of the same compound?
**A.** 16.4 µM (inactive)

**Q.** And the GI50 [32]?
**A.** 14.6 µM (inactive)

**Q.** And the GI50 [33]?
**A.** 33 µM (inactive)

**Q.** And the GI50 [34]?
**A.** 7.13 µM (inactive)

**Q.** And the GI50 [35]?
**A.** 19.8 µM (inactive)

**Q.** What about the GI50 [36] of the same compound?
**A.** 19.1 µM (inactive)

**Q.** What about the GI50 [37] of the same compound?
**A.** 2.32 µM (inactive)

**Q.** And the GI50 [38]?
**A.** 18 µM (inactive)

**Q.** And the GI50 [39]?
**A.** 5.96 µM (inactive)

**Q.** What about the GI50 [40] of the same compound?
**A.** 30.3 µM (inactive)

**Q.** What about the GI50 [41] of the same compound?
**A.** 12.6 µM (inactive)

**Q.** And the GI50 [42]?
**A.** 8.24 µM (inactive)

**Q.** What about the GI50 [43] of the same compound?
**A.** 3.49 µM (inactive)

**Q.** And the GI50 [44]?
**A.** 28.5 µM (inactive)

**Q.** What about the GI50 [45] of the same compound?
**A.** 4.09 µM (inactive)

**Q.** And the GI50 [46]?
**A.** 35 µM (inactive)

**Q.** What about the GI50 [47] of the same compound?
**A.** 13.4 µM (inactive)

**Q.** And the GI50 [48]?
**A.** 5.62 µM (inactive)

**Q.** And the GI50 [49]?
**A.** 13.4 µM (inactive)

**Q.** What about the GI50 [50] of the same compound?
**A.** 21.8 µM (inactive)

**Q.** What about the GI50 [51] of the same compound?
**A.** 17.7 µM (inactive)

**Q.** What about the GI50 [52] of the same compound?
**A.** 8.89 µM (inactive)

**Q.** And the GI50 [53]?
**A.** 23.8 µM (inactive)

**Q.** And the GI50 [54]?
**A.** 15 µM (inactive)

**Q.** And the GI50 [55]?
**A.** 8.53 µM (inactive)

**Q.** And the GI50 [56]?
**A.** 29.1 µM (inactive)

**Q.** What about the GI50 [57] of the same compound?
**A.** 37.4 µM (inactive)

**Q.** What about the GI50 [58] of the same compound?
**A.** 26.1 µM (inactive)

**Q.** Which GI50 [1] does the source give for `CCC(C)[C@H]1C(=O)N=C(N)N1C(=O)OCc1ccccc1` (some centres undefined) here?
**A.** > 100 µM (inactive)

**Q.** What about the GI50 [2] of the same compound?
**A.** > 100 µM (inactive)

**Q.** What about the GI50 [3] of the same compound?
**A.** > 100 µM (inactive)

**Q.** And the GI50 [4]?
**A.** > 100 µM (inactive)

**Q.** And the GI50 [5]?
**A.** > 100 µM (inactive)

**Q.** And the GI50 [6]?
**A.** > 100 µM (inactive)

**Q.** And the GI50 [8]?
**A.** > 100 µM (inactive)

**Q.** What about the GI50 [9] of the same compound?
**A.** > 100 µM (inactive)

**Q.** And the GI50 [10]?
**A.** > 100 µM (inactive)

**Q.** And the GI50 [11]?
**A.** > 100 µM (inactive)

**Q.** And the GI50 [12]?
**A.** > 100 µM (inactive)

**Q.** What about the GI50 [13] of the same compound?
**A.** > 100 µM (inactive)

**Q.** What about the GI50 [14] of the same compound?
**A.** > 100 µM (inactive)

**Q.** What about the GI50 [15] of the same compound?
**A.** > 100 µM (inactive)

**Q.** And the GI50 [16]?
**A.** > 100 µM (inactive)

**Q.** And the GI50 [17]?
**A.** 78 µM (inactive)

**Q.** And the GI50 [18]?
**A.** > 100 µM (inactive)

**Q.** And the GI50 [19]?
**A.** > 100 µM

**Q.** And the GI50 [20]?
**A.** > 100 µM (inactive)

**Q.** And the GI50 [23]?
**A.** > 100 µM (inactive)

**Q.** What about the GI50 [24] of the same compound?
**A.** > 100 µM (inactive)

**Q.** What about the GI50 [25] of the same compound?
**A.** > 100 µM (inactive)

**Q.** What about the GI50 [26] of the same compound?
**A.** > 100 µM (inactive)

**Q.** What about the GI50 [59] of the same compound?
**A.** > 100 µM (inactive)

**Q.** And the GI50 [28]?
**A.** > 100 µM (inactive)

**Q.** What about the GI50 [29] of the same compound?
**A.** > 100 µM (inactive)

**Q.** And the GI50 [31]?
**A.** > 100 µM (inactive)

**Q.** What about the GI50 [32] of the same compound?
**A.** > 100 µM (inactive)

**Q.** What about the GI50 [33] of the same compound?
**A.** > 100 µM (inactive)

**Q.** And the GI50 [34]?
**A.** > 100 µM (inactive)

**Q.** What about the GI50 [35] of the same compound?
**A.** > 100 µM (inactive)

**Q.** What about the GI50 [36] of the same compound?
**A.** > 100 µM (inactive)

**Q.** What about the GI50 [37] of the same compound?
**A.** > 100 µM (inactive)

**Q.** What about the GI50 [38] of the same compound?
**A.** > 100 µM (inactive)

**Q.** And the GI50 [39]?
**A.** > 100 µM (inactive)

**Q.** And the GI50 [42]?
**A.** > 100 µM (inactive)

**Q.** What about the GI50 [43] of the same compound?
**A.** > 100 µM (inactive)

**Q.** And the GI50 [44]?
**A.** > 100 µM (inactive)

**Q.** What about the GI50 [45] of the same compound?
**A.** > 100 µM (inactive)

**Q.** What about the GI50 [47] of the same compound?
**A.** > 100 µM (inactive)

**Q.** And the GI50 [48]?
**A.** > 100 µM (inactive)

**Q.** What about the GI50 [49] of the same compound?
**A.** > 100 µM (inactive)

**Q.** What about the GI50 [50] of the same compound?
**A.** > 100 µM (inactive)

**Q.** What about the GI50 [51] of the same compound?
**A.** > 100 µM (inactive)

**Q.** And the GI50 [52]?
**A.** > 100 µM (inactive)

**Q.** And the GI50 [53]?
**A.** > 100 µM (inactive)

**Q.** What about the GI50 [54] of the same compound?
**A.** > 100 µM (inactive)

**Q.** And the GI50 [55]?
**A.** > 100 µM (inactive)

**Q.** And the GI50 [56]?
**A.** > 100 µM (inactive)

**Q.** And the GI50 [57]?
**A.** > 100 µM (inactive)

**Q.** And the GI50 [58]?
**A.** > 100 µM (inactive)

— ChEMBL document CHEMBL1201862, “PubChem BioAssay data set” (2004)
